Experiments:
[1] = target: T1, SGLT2 (Homo sapiens, UniProt P31639); test: 14C-AMG uptake in BHK cells transfected with SGLT2; type: cell-based; conditions: 37° C., 90 min
T1 construct: expressed in transfected cells
T1 sequence (P31639 1-672): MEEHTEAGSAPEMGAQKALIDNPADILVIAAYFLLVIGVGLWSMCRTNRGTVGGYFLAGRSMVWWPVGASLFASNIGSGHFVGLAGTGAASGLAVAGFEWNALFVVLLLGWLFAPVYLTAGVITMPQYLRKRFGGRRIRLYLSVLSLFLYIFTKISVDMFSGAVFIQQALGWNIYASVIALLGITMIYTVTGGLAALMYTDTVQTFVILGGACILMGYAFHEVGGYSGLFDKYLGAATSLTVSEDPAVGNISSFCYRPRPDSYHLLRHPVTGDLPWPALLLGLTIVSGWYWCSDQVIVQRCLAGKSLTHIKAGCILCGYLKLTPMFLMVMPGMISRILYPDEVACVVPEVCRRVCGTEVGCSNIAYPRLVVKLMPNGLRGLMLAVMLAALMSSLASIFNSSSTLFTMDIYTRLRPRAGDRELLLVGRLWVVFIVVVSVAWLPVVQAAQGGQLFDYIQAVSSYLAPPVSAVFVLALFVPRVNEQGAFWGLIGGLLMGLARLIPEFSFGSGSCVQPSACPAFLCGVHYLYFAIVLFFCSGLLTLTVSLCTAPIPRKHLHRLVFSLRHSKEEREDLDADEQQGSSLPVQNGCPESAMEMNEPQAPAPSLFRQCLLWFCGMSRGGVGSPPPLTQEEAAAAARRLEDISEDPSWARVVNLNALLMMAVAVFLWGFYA
Text: (§1) The compounds can be tested on their SGLT inhibition properties by means of BHK cells expressing SGLT1 and SGLT2. The production of the cells and the testing can be carried out as described below.
To construct the SGLT2 expression vector (KL224), the SLC5A2 gene (homologous to NM_003041) was amplified from a cDNA library using standard PCR technology and cloned over NheI/XhoI sites into PCI-neo expression vector (Promega) containing neomycin as a selection marker. In this vector, transcription uses the enhancer/promoter of human cytomegalovirus and the SV40 polyadenylation signal.
(§2) The final vector KL224 together with an additional vector containing a dihydrofolate reductase gene as a selection marker was introduced into cells. Transfection into BHK21 cells (ATCC CCL-10), cultivated in DMEM medium (GIBCO/BRL), supplemented with 10% foetal calf serum (FCS) and 20 mM glutamine, was carried out using calcium phosphate transfections according to Graham, F. L. and van der Ebb, A. J. (1973), Virology 52: 456 with 5-20 μg of uncut plasmids for 10^7 cells. Stable transfectants were selected in medium containing 1 mg/ml of G418 (GIBCO/BRL) and 20-5000 nM methotrexate as final concentration, where only cells which expressed the neomycin gene and overexpressed the dhfr gene were able to grow. After growth for 2-3 weeks, the cells were cloned (0.5 cells/well) and the clones were investigated for SGLT expression in the radioactive uptake test,
The uptake of ^14C-α-methyl-D-glucopyranoside (AMG) in, for example, Xenopus oocytes injected with the corresponding cRNA has been described in principle (for example Wen-Sen Lee et al. (1994), J. Biol. Chem. 269, 12032-12039; Guofeng You et al. (1995), J. Biol. Chem. 270, 29365-29371).
(§3) A 96-well cell-based assay was developed and adapted to HIS requirements:
(§4) BHK cells (transfected with SGLT1 or SGLT2) were seeded into 96-well microtitre plates (Cultureplates, Perkin Elmer). After at least 24 h, medium was removed and the cell layer was washed with assay buffer (140 mM NaCl, 2 mM KCl, 1 mM CaCl2, 1 mM MgCl2, 10 mM HEPES, 5 mM Tris, adjusted with 1 M KOH to pH 7.4), After addition of 40 μl of assay buffer, 50 μl of AMG ([…] for SGLT1 and 2 mM for SGLT2) in the presence or absence of compounds, the cells were incubated in a total volume of 100 μl at 37° C. for 90 min. Supernatant was removed by suction and discarded. The cells were washed and lysed by addition of 50 μl of water. After 10 min at room temperature, 200 μl of Microscint 40 (Perkin Elmer) were added. The radioactivity was counted in a Topcount microplate scintillation counter (Perkin Elmer). The non-specific uptake was determined in sodium-free assay buffer (266 mM sucrose, 2 mM KCl, 1 mM CaCl2, 1 mM MgCl2, 10 mM HEPES, 5 mM Tris, adjusted to pH 7.4 using 1 M KOH).

[2] = target: T2, SGLT1 (Homo sapiens, UniProt P13866); test: 14C-AMG uptake in BHK cells transfected with SGLT1; type: cell-based; conditions: 37° C., 90 min
T2 construct: expressed in transfected cells
T2 sequence (P13866 1-664): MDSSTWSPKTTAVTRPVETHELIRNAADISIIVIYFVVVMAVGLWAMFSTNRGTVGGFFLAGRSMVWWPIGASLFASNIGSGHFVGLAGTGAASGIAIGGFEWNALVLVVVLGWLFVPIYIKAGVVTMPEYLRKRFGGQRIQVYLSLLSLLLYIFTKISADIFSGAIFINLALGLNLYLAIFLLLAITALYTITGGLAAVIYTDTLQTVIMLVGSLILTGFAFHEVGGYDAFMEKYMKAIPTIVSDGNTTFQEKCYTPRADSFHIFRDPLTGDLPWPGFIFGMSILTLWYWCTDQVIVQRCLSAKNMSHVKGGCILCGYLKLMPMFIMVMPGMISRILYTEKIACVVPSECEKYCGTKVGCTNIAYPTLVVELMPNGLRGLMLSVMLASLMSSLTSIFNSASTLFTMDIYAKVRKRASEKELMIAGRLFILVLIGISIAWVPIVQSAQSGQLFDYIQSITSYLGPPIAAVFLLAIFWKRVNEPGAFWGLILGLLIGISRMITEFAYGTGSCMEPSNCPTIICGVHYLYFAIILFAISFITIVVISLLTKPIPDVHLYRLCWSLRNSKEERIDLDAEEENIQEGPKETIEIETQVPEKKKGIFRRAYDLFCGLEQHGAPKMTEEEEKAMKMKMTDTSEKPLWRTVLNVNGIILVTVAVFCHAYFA
Text: as §1
To construct the SGLT1 expression vector (KL225), the SLC5A1 gene (homologous to NM_000343) was amplified from a cDNA library using standard PCR technology and cloned over NheI/XhoI sites into the cDNA3.1 expression vector (Invitrogen) containing neomycin as a selection marker. In this vector, transcription uses the enhancer/promoter of human cytomegalovirus.
as §2, with “KL225” for “KL224”, “radioactivity” for “radioactive”, “test. […]” for “test,”
as §3, §4

Cc1cccc(C)c1Nc1c(-c2ccccc2-c2nccs2)nc2ccc(F)cn12 [Compound A1, (2,6-dimethylphenyl)-[6-fluoro-2-(2-thiazol-2-ylphenyl)-imidazo[1,2-a]pyridin-3-yl]amine]
IC50 [1]: > 10000 nM
IC50 [2]: > 10 µM

Cc1cccc(C)c1Nc1c(-c2ccccc2-c2cccc(C(=O)O)c2)nc2ccccn12 [Compound A2, 2′-[3-(2,6-Dimethylphenylamino)imidazo [1,2-a]pyridin-2-yl]biphenyl-3-carboxylic acid]
IC50 [1]: > 10000 nM
IC50 [2]: > 10 µM

Cc1cccc(C)c1Nc1c(-c2ccccc2-c2cccs2)nc2ccc(F)cn12 [Compound A3]
IC50 [1]: 1000 to 10000 nM
IC50 [2]: > 10 µM

Cc1cccc(C)c1Nc1c(-c2ccccc2-c2cccc(C(N)=O)c2)nc2ccccn12 [Compound A4]
IC50 [1]: 1000 to 10000 nM
IC50 [2]: 1 to 10 µM

Cc1cccc(C)c1Nc1c(-c2c(-n3cccn3)cccc2-n2cccn2)nc2ccc(F)cn12 [Compound A5, (2,6-Dimethylphenyl)-[2-(2,6-dipyrazol-1-yl-phenyl)-6-fluoroimidazo[1,2-a]pyridin-3-yl]-amine]
IC50 [1]: 1000 to 10000 nM
IC50 [2]: 1 to 10 µM

Cc1cccc(C)c1Nc1c(-c2ccccc2-n2cccn2)nc2ccc(F)cn12 [Compound A6]
IC50 [1]: 1000 to 10000 nM
IC50 [2]: > 10 µM

Cc1cccc(C)c1Nc1c(-c2ccccc2-c2ccc(C(N)=O)o2)nc2ccc(F)cn12 [Compound A7]
IC50 [1]: 1000 to 10000 nM
IC50 [2]: 1 to 10 µM

Cc1cccc(C)c1Nc1c(-c2ccccc2-c2ccc([N+](=O)[O-])s2)nc2ccc(F)cn12 [Compound A8]
IC50 [1]: 1000 to 10000 nM
IC50 [2]: 1 to 10 µM

Cc1cccc(C)c1Nc1c(-c2ccccc2-c2cncnc2)nc2ccccn12 [Compound A9]
IC50 [1]: 10 to 1000 nM
IC50 [2]: 1 to 10 µM

Cc1nc(-c2ccccc2-c2nc3ccc(F)cn3c2Nc2c(C)cccc2C)no1 [Compound A10]
IC50 [1]: 10 to 1000 nM
IC50 [2]: 1 to 10 µM

Cc1cccc(C)c1Nc1c(-c2ccccc2-c2cccnc2)nc2ccc(F)cn12 [Compound A11]
IC50 [1]: 10 to 1000 nM
IC50 [2]: 1 to 10 µM

Cc1cccc(C)c1Nc1c(-c2ccccc2-c2nnc(N)o2)nc2ccc(F)cn12 [Compound B1, {2-[2-(5-amino-1,3,4-oxadiazol-2-yl)phenyl]-6-fluoroimidazo[1,2-a]pyridin-3-yl}-(2,6-dimethylphenyl)amine]
IC50 [1]: 10 to 1000 nM
IC50 [2]: > 10 µM

Cc1cccc(C)c1Nc1c(-c2c(Cl)cccc2-c2nnc(N)o2)nc2ccc(F)cn12 [Compound B2]
IC50 [1]: 10 to 1000 nM
IC50 [2]: > 10 µM

CNc1nnc(-c2ccccc2-c2nc3ccc(F)cn3c2Nc2c(C)cccc2C)o1 [Compound C1, (2,6-dimethylphenyl)-{6-fluoro-2-[2-(5-methylamino-1,3,4-oxadiazol-2-yl)phenyl]imidazo[1,2-a]pyridin-3-yl}amine]
IC50 [1]: 10 to 1000 nM
IC50 [2]: 1 to 10 µM

CNc1nnc(-c2cc(O)c(O)cc2-c2nc3ccc(F)cn3c2Nc2c(C)cc(F)cc2C)o1 [Compound C2]
IC50 [1]: 1000 to 10000 nM
IC50 [2]: > 10 µM

CNc1nnc(-c2cc(OC)c(OC)cc2-c2nc3ccc(F)cn3c2Nc2c(C)cc(F)cc2C)o1 [Compound C3]
IC50 [1]: 1000 to 10000 nM
IC50 [2]: > 10 µM

Cc1cccc(C)c1Nc1c(-c2ccccc2-c2nnc(N(C)C)o2)nc2ccc(F)cn12 [Compound C4]
IC50 [1]: 10 to 1000 nM
IC50 [2]: 1 to 10 µM

CCNc1nnc(-c2ccccc2-c2nc3ccc(F)cn3c2Nc2c(C)cccc2C)o1 [Compound C5]
IC50 [1]: 10 to 1000 nM
IC50 [2]: 1 to 10 µM

CNc1nnc(-c2c(-c3nc4ccc(F)cn4c3Nc3c(C)cccc3C)c3ccccc3n2C)o1 [Compound C12, (2,6-Dimethylphenyl)-{6-fluoro-2-[1-methyl-2-(5-methylamino-1,3,4-oxadiazol-2-yl)-1H-indol-3-yl]imidazo[1,2-a]pyridin-3-yl}amine]
IC50 [1]: 10 to 1000 nM
IC50 [2]: 1 to 10 µM

CNc1nnc(-c2sc3ccccc3c2-c2nc3ccc(F)cn3c2Nc2c(C)cccc2C)o1 [Compound C13, (2,6-Dimethylpheny1)-{6-fluoro-2-[2-(5-methylamino-1,3,4-oxadiazol-2-y1)-benzo[b]thiophen-3-yl]imidazo[1,2-a]pyridin-3-yl}amine]
IC50 [1]: 10 to 1000 nM
IC50 [2]: 0.01 to 1 µM

Source: patent US8153649B2, “3-aminoimidazo 1,2-A pyridine derivatives having an SGLT1- and SGLT2-inhibiting action for the treatment of type 1 and type 2 diabetes” (Merck Patent Gesellschaft mit beschrankter Haftung, priority 2006, dated 2012)
